Data on 28 compounds can be found in patent US6548307B2, “Determination of logP coefficients via a RP-HPLC column” (Pfizer Inc., priority 2000, dated 2003).

Usually chromatographic logP stands for lipophilicity estimated from chromatographic retention. A high value points to a more lipophilic compound.

For data set [1] the following is noted: Shake-flask data from literature references; cited from earlier work.
Another data set can be described thus: physchem. The settings on record: for log k′2 (capacity factor extrapolated to 0% methanol): Average of at least three determinations on different LC-ABZ columns, 20 mM MOPS pH 7.4/methanol with octanol; for Residual: logPoct minus ElogPoct. The method, then:
The mobile phase consisted, in all cases, of 20 mM MOPS buffer at pH 7.4, and methanol in varying proportions from 70 to 15% v/v. […] The capacity factors data (k′=(tR−t0)/t0) obtained at various amounts of methanol were then extrapolated to 0% methanol and reported as log k′w, using a linear procedure. […] Injections of pure methanol were used to determine t0, i.e. the dead time, while tR has the usual meaning of the retention time for the analyte.
All the chromatographic runs were performed on a HP-1100 HPLC ChemStation at the ambient temperature. The columns used were Supelcosil LC-ABZ, 5μm, 4.6×50 mm. […] Columns having different silica bond lots were tested to ensure reproducibility. Samples were dissolved in 1:1 methanol/water at a concentration of 10-30 μg/mL. The flow rate was 0.5, 1 or 2 mL/min, depending on the lipophilicity range. Three lipophilicity ranges were established using, in all cases, three points for the extrapolation to k′w, as described in the table below.
The samples were placed in the appropriate range by estimating their lipophilicity via computed values, or by prior experience with a given class. In each case the entire group of samples was run before the column is equilibrated to the next condition, in an automated fashion, and the initial estimation need not be very accurate. The data analysis was automated via in-house software yielding the ElogPoct values, directly from the chromatographic data files.

The nature of data set [2]: Shake-flask octanol/buffer partition coefficient (logPoct). The data set is classed as physicochemical. Conditions: Shake-flask data, this work (in-house, octanol/MOPS buffer, overnight shaking). The text has this: The shake-flask logPoct data were taken from the literature or determined in-house, except when data were not available or could not be determined experimentally due to the high lipophilicity of the compound. In such cases a computed value was used. The shake-vial experimental measurements performed in-house were all conducted at least in duplicate, in amber glass vials and, in some cases, with varying ratios of octanol and MOPS buffer, mutually pre-saturated prior to the experiment. Overnight shaking was used. HPLC analysis at different wavelengths, after centrifugation and separation of the phases, was used for the quantitative analysis, using both phases.

The mark [3] stands for this setting: Data from Equation 3 (from log k′w).

Like-named read-outs stand apart in the source and are kept apart here.

As for `NC(=O)N1c2ccccc2C=Cc2ccccc21` [Carbamazepine], in data set [1], the logPoct is 2.19. For the same compound, in “physchem”, the chromatographic logP is 2.02, the “log k′2 (capacity factor extrapolated to 0% methanol)” value is reported as 1.70 and the Residual came out at 0.17.

As for `O=C1CN=C(c2ccccn2)c2cc(Br)ccc2N1` [Bromazepam], the logPoct in data set [1] is recorded as 1.65. In the data set “physchem”, the chromatographic logP worked out at 1.39, the “log k′2 (capacity factor extrapolated to 0% methanol)” value is recorded as 1.13 and the Residual worked out at 0.26.

Regarding `c1ccc2ccccc2c1` [Naphthalene], in the data set “physchem”, the chromatographic logP was 3.53, the “log k′2 (capacity factor extrapolated to 0% methanol)” value is on record as 3.06 and the Residual is listed as −0.16.

In the case of `C[C@]12C=CC(=O)C=C1CC[C@@H]1[C@@H]2[C@@H](O)C[C@@]2(C)[C@H]1CC[C@]2(O)C(=O)CO` [Prednisolone], in the data set “physchem”, the chromatographic logP is 1.84, the “log k′2 (capacity factor extrapolated to 0% methanol)” value is given as 1.54 and the Residual is reported as −0.24.

As to `Oc1cc(Cl)cc(Cl)c1` [3,5-Dichlorophenol], the logPoct in data set [1] was 3.68. For the same compound, in “physchem”, the chromatographic logP turned out to be 3.91, the “log k′2 (capacity factor extrapolated to 0% methanol)” value was 3.40 and the Residual is given as −0.23.

Consider `Brc1cnc2ccccc2c1` [3-Bromoquinoline], for which, in data set [1], the logPoct was 3.03. Also, in the data set “physchem”, the chromatographic logP came out at 2.95, the “log k′2 (capacity factor extrapolated to 0% methanol)” value is 2.54 and the Residual worked out at 0.08.

For `CC(=O)Nc1ccc(O)cc1` [Acetaminophen], in “physchem”, the chromatographic logP was determined as 0.11, the “log k′2 (capacity factor extrapolated to 0% methanol)” value is recorded as −0.02 and the Residual was 0.40.

Regarding `CS(=O)(=O)c1ccc([C@@H](O)[C@@H](CO)NC(=O)C(Cl)Cl)cc1` [Thiamphenicol], in data set [1], the logPoct is reported as −0.27. Besides, in the data set “physchem”, the “log k′2 (capacity factor extrapolated to 0% methanol)” value was −0.24 and the Residual was −0.14. The compound also yielded an ElogPoct in “physchem” (pH 7.4) of −0.13.

Consider `NC(=O)N/N=C/c1ccc([N+](=O)[O-])o1` [Nitrofurazone], for which the logPoct in data set [1] was 0.23. In addition, in “physchem”, the chromatographic logP was 0.24, the “log k′2 (capacity factor extrapolated to 0% methanol)” value is 0.10 and the Residual is recorded as −0.01.

Regarding `c1ccc(-c2ccc(C(c3ccccc3)n3ccnc3)cc2)cc1` (centres unmarked) [Bifonazole], the logPoct in data set [1] is 4.77. In “physchem”, the chromatographic logP worked out at 4.98, the “log k′2 (capacity factor extrapolated to 0% methanol)” value is on record as 4.37 and the Residual was −0.21.

Regarding `C[C@]12CC[C@H]3[C@@H](CCC4=CC(=O)CC[C@@]43C)[C@@H]1CC[C@@H]2O` [Testosterone], in data set [1], the logPoct is 3.29. In “physchem”, the “log k′2 (capacity factor extrapolated to 0% methanol)” value was 2.74 and the Residual turned out to be 0.12. In the data set “physchem” (setting [3]), this compound registered an ElogPoct of 3.17.

Regarding `COC1=CC(=O)C[C@@H](C)[C@]12Oc1c(Cl)c(OC)cc(OC)c1C2=O` [Griseofulvin], the logPoct in data set [1] was 2.18. In the data set “physchem”, the chromatographic logP came out at 2.59, the “log k′2 (capacity factor extrapolated to 0% methanol)” value was 2.21 and the Residual is −0.41.

On to `Oc1ncnc2[nH]ncc12` [Allopurinol], for which the logPoct in data set [1] is on record as −0.55. Further, in the data set “physchem”, the “log k′2 (capacity factor extrapolated to 0% methanol)” value is recorded as −0.89 and the Residual is 0.30. The compound also had an ElogPoct in the data set “physchem” (pH 7.4) of −0.85.

`CC/C(=C(/CC)c1ccc(O)cc1)c1ccc(O)cc1` [Diethylstilbestrol]: the logPoct in data set [1] was 5.07. In “physchem”, the chromatographic logP was determined as 4.75, the “log k′2 (capacity factor extrapolated to 0% methanol)” value is 4.16 and the Residual was 0.32.

On to `C[C@@H]1C[C@H]2[C@@H]3CCC4=CC(=O)C=C[C@]4(C)[C@@]3(F)[C@@H](O)C[C@]2(C)[C@@]1(O)C(=O)CO` [Dexamethasone], for which, in data set [1], the logPoct is recorded as 1.83. In the data set “physchem”, the chromatographic logP is 2.39.

`c1ccc2ncccc2c1` [Quinoline]: in the data set “physchem”, the chromatographic logP stood at 1.86, the “log k′2 (capacity factor extrapolated to 0% methanol)” value is 1.56 and the Residual is 0.17.

In the case of `O=[N+]([O-])c1ccc(/C=N/O)o1` [Nifuroxime], in “physchem”, the chromatographic logP came out at 1.36, the “log k′2 (capacity factor extrapolated to 0% methanol)” value is 1.11 and the Residual is listed as −0.08. The compound also gave a logPoct in data set [2] of 1.28.

Consider `C[C@]12C=CC(=O)C=C1CC[C@@H]1[C@@H]2C(=O)C[C@@]2(C)[C@H]1CC[C@]2(O)C(=O)CO` [Prednisone], for which, in “physchem”, the “log k′2 (capacity factor extrapolated to 0% methanol)” value is on record as 1.21 and the Residual is reported as −0.02.

Regarding `CN1C(=O)C(O)N=C(c2ccccc2Cl)c2cc(Cl)ccc21` (centres unmarked) [Lormetazepam], the logPoct in data set [1] was 2.72. Further, in “physchem”, the chromatographic logP was found to be 2.8, the “log k′2 (capacity factor extrapolated to 0% methanol)” value is given as 2.40 and the Residual is given as −0.08.

As to `CC(=O)OCC(=O)[C@@]1(O)CC[C@H]2[C@@H]3CCC4=CC(=O)CC[C@]4(C)[C@H]3[C@@H](O)C[C@@]21C` [Hydrocortisone-21-acetate], in the data set “physchem”, the “log k′2 (capacity factor extrapolated to 0% methanol)” value is given as 1.93 and the Residual is given as −0.08. The compound also showed an ElogPoct in the data set “physchem” (setting [3]) of 2.27.

As to `C[C@]12CC[C@@H]3c4ccc(O)cc4CC[C@H]3[C@@H]1CC[C@@H]2O` [Estradiol], the chromatographic logP in the data set “physchem” was 3.84.

As for `Oc1cccc(Cl)c1` [3-Clorophenol], in the data set “physchem”, the “log k′2 (capacity factor extrapolated to 0% methanol)” value is 2.49 and the Residual was −0.40.

Consider `Cc1cccc(N(C)C(=S)Oc2ccc3ccccc3c2)c1` [Tolnaftate], for which, in the data set “physchem”, the chromatographic logP is 5.18, the “log k′2 (capacity factor extrapolated to 0% methanol)” value is recorded as 4.55 and the Residual turned out to be 0.22.

Take `Cc1ncc([N+](=O)[O-])n1CCO` [Metronidazole]: the logPoct in data set [1] is −0.02. Moreover, in the data set “physchem”, the “log k′2 (capacity factor extrapolated to 0% methanol)” value is listed as −0.32 and the Residual was determined as 0.20. In “physchem” (pH 7.4), this compound showed an ElogPoct of −0.22.

Consider `CC(=O)CCCCn1c(=O)c2c(ncn2C)n(C)c1=O` [Pentoxifylline], for which the logPoct in data set [1] was 0.29. Besides, in the data set “physchem”, the chromatographic logP turned out to be 0.31, the “log k′2 (capacity factor extrapolated to 0% methanol)” value is 0.16 and the Residual is −0.02.

Turning to `CC(=O)c1ccccc1` [Acetophenone], in “physchem”, the chromatographic logP was found to be 1.59, the “log k′2 (capacity factor extrapolated to 0% methanol)” value was 1.31 and the Residual is given as −0.01.

Consider `CSc1ncnc2c1ncn2[C@@H]1O[C@H](CO)[C@@H](O)[C@H]1O` [Methylthiolnosine], for which, in the data set “physchem”, the “log k′2 (capacity factor extrapolated to 0% methanol)” value was 0.19 and the Residual is recorded as −0.25. In the data set “physchem” (setting [3]), this compound yielded an ElogPoct of 0.34. In addition, the logPoct in data set [2] came out at 0.09.

Take `O=C1Nc2ccc(Cl)cc2C(c2ccccc2Cl)=NC1O` (centres unmarked) [Lorazepam]: in the data set “physchem”, the chromatographic logP turned out to be 2.75, the “log k′2 (capacity factor extrapolated to 0% methanol)” value was 2.36 and the Residual is reported as −0.24.
